Measurements taken from paper PMC10047490, “Novel Generation of FAP Inhibitor-Based Homodimers for Improved Application in Radiotheranostics” (Cancers, 2023).
Read-outs that look alike come from different tables or passages of the source.

What was measured:
FAP = details: different assay conditions; cited from earlier work
[1] = target: T1, rhFAP (recombinant human fibroblast activation protein) (Homo sapiens, UniProt Q12884); test: In vitro inhibition assay (IC50), FAP, substrate Z-Gly-Pro-AMC; type: biochemical; details: for IC50 values for FAP (in words): summary statement on Table 3
T1 construct: made in house
T1 sequence (Q12884 1-760): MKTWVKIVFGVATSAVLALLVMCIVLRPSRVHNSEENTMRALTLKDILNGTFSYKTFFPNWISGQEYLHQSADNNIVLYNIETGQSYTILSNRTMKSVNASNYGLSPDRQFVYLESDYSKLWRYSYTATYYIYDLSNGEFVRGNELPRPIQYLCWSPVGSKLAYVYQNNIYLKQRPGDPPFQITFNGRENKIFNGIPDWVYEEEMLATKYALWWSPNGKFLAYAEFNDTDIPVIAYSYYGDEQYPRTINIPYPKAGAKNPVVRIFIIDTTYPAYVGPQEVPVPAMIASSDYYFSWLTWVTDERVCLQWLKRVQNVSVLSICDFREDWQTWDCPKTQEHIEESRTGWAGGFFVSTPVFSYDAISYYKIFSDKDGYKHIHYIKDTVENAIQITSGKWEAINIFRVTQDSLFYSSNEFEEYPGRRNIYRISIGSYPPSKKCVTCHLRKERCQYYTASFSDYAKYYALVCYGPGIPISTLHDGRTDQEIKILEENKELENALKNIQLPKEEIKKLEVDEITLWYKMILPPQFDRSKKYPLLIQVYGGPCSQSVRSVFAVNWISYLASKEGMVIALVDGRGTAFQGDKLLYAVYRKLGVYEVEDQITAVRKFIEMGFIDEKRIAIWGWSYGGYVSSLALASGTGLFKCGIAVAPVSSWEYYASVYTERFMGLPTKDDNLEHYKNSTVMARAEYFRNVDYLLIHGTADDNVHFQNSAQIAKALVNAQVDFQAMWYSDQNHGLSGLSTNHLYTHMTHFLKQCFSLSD
Procedure: (§1) rhFAP (recombinant human fibroblast activation protein), DPP8 (dipeptidyl peptidase VIII) and DPP9 (dipeptidyl peptidase IX) were expressed and purified as described previously. DPP4 (dipeptidyl peptidase IV) was purified from human seminal plasma as described previously. Human recombinant PREP (prolylendopeptidase) was expressed and purified as described before.
(§2) IC50 measurements for FAP and PREP were carried out as described before. […] For PREP, N-succinyl-Gly-Pro-AMC (Bachem) at a final concentration of 250 µM at pH 7.4 in 0.1 M K-phosphate, 1 mM EDTA, 1 mM DTT and 1 mg/mL BSA buffer was used.
(§3) All enzymatic activities were determined kinetically for 15 min at 37 °C by measuring initial velocities of AMC release (λex = 380 nm and λem = 465 nm) or pNA release (405 nm) from the substrates mentioned above with an Infinite 200 plate reader from Tecan Group Ltd. (Männedorf, Switzerland). The Magellan software was used to process the data, and data fitting was performed using a non-linear fitting model in Grafit 7.4. All IC50 measurements were carried out in triplicate with at least eight different inhibitor concentrations tested.

[2] = target: T2, Human recombinant PREP (prolylendopeptidase) (Homo sapiens, UniProt P48147); test: In vitro inhibition assay (IC50), PREP, substrate N-succinyl-Gly-Pro-AMC; type: biochemical; details: for IC50: 250 µM N-succinyl-Gly-Pro-AMC, pH 7.4, 37 °C; for SI(PREP/FAP): selectivity index = IC50(PREP)/IC50(FAP)
T2 construct: made in house
T2 sequence (P48147 1-710): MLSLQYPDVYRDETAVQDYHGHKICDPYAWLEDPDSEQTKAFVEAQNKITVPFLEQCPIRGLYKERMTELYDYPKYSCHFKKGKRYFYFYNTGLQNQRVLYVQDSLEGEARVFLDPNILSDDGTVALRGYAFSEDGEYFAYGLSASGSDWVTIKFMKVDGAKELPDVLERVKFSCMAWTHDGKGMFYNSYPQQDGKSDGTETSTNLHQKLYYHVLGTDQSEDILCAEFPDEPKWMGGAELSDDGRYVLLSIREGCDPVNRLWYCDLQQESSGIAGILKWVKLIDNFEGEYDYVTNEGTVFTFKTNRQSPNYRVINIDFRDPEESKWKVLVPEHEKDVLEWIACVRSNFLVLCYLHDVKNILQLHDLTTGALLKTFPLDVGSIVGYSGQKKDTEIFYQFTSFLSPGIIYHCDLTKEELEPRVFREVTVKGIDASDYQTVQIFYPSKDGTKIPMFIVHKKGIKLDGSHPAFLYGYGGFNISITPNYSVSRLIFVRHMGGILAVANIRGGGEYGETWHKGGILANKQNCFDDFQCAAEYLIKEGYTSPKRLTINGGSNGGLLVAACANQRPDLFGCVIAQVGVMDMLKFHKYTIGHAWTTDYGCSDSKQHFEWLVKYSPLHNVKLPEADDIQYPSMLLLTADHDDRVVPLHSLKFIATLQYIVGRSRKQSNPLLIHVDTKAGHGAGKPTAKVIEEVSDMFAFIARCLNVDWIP
Procedure: as §1, §2, §3

[3] = target: T3, DPP4 (dipeptidyl peptidase IV) purified from human seminal plasma (Homo sapiens, UniProt P27487); test: In vitro inhibition assay (IC50), DPP4, substrate Ala-Pro-pNA; type: biochemical; details: for IC50: 25 µM Ala-Pro-pNA, pH 7.4, 37 °C; for SI(DPP4/FAP): selectivity index = IC50(DPP4)/IC50(FAP)
T3 construct: DPP4 (dipeptidyl peptidase IV) was purified from human seminal plasma; from tissue; host or cells: human seminal plasma
Procedure: as §1, §3

[4] = target: T4, DPP8 (dipeptidyl peptidase VIII) (Homo sapiens, UniProt Q6V1X1); test: In vitro inhibition assay (IC50), DPP8, substrate Ala-Pro-pNA; type: biochemical; details: for IC50: 300 µM Ala-Pro-pNA, pH 7.4, 37 °C
T4 construct: made in house
Procedure: as §1, §3

[5] = target: T5, DPP9 (dipeptidyl peptidase IX) (Homo sapiens, UniProt Q86TI2); test: In vitro inhibition assay (IC50), DPP9, substrate Ala-Pro-pNA; type: biochemical; details: for IC50: 150 µM Ala-Pro-pNA, pH 7.4, 37 °C; for SI(DPP9/FAP): selectivity index = IC50(DPP9)/IC50(FAP)
T5 construct: made in house
Procedure: as §1, §3

[6] = target: T4, DPP8 (dipeptidyl peptidase VIII); details: from previous works; cited from earlier work

T3 sequence (P27487 whole entry): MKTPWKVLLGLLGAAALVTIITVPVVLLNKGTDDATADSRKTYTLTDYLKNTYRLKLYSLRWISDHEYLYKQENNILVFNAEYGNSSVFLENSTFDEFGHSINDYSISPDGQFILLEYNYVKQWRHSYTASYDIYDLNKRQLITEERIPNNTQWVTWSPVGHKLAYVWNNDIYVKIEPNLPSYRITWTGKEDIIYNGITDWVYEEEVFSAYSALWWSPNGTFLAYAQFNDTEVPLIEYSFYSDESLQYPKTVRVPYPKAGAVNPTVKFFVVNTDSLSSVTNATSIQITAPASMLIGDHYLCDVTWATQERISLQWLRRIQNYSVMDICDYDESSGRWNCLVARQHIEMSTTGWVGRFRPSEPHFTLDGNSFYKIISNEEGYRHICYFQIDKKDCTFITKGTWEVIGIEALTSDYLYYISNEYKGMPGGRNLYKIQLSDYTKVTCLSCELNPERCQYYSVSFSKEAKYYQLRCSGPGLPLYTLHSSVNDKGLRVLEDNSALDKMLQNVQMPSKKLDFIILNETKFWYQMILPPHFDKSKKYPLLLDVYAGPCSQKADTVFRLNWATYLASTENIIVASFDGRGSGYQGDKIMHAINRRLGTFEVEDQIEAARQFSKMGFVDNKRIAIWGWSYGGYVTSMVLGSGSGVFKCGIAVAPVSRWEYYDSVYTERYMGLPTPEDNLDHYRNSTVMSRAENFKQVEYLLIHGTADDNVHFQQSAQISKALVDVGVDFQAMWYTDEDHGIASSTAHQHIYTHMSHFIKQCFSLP
T4 sequence (Q6V1X1 whole entry, species assumed): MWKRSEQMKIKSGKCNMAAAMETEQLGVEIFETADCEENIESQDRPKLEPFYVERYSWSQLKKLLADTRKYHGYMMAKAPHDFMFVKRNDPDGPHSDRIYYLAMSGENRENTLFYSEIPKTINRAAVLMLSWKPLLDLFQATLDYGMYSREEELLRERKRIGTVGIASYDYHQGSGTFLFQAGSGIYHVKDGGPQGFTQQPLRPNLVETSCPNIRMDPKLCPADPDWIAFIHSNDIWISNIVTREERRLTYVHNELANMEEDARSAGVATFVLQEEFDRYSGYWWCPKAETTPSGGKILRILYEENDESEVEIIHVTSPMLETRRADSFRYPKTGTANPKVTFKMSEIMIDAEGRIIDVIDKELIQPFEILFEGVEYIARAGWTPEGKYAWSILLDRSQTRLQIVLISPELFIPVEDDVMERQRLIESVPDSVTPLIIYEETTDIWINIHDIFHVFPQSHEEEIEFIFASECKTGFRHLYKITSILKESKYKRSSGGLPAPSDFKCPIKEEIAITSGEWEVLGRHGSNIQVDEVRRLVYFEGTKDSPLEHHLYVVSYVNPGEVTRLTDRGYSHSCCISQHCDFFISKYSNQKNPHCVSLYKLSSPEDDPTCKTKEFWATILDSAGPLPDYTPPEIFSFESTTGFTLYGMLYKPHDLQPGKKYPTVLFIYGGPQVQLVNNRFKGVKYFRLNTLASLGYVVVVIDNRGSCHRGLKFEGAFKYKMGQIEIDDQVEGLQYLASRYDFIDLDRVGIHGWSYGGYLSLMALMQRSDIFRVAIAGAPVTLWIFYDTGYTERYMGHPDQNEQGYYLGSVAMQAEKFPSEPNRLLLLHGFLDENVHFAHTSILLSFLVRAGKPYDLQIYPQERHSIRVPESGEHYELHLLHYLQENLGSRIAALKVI
T5 sequence (Q86TI2 whole entry, species assumed): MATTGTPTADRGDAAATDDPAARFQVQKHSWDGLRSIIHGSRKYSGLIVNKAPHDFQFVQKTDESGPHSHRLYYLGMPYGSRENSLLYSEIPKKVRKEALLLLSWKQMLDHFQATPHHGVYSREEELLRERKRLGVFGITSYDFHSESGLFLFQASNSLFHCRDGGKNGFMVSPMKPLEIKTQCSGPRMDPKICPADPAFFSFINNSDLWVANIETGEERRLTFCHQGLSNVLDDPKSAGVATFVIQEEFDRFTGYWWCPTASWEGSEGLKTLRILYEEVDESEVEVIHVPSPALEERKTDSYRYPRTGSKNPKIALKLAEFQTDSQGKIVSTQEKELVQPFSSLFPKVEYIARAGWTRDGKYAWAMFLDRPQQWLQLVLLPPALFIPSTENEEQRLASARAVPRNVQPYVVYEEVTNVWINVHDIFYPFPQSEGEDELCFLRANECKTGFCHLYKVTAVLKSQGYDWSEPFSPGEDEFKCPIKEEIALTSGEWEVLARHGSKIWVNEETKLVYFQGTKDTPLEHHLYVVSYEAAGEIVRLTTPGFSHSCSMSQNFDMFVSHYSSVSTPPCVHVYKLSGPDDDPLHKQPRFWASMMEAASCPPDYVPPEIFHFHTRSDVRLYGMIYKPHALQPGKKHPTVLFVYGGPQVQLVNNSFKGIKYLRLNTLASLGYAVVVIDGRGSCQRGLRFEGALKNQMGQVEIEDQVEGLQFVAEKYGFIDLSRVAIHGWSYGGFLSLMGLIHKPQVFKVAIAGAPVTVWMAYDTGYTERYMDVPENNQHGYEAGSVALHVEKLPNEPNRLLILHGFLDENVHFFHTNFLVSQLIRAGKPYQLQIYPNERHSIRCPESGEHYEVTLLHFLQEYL

N#C[C@@H]1CC(F)(F)CN1C(=O)CNC(=O)c1ccnc2c(NC(=O)CCC(=O)NCCCC[C@H](NC(=O)CCC(=O)Nc3cccc4c(C(=O)NCC(=O)N5CC(F)(F)C[C@H]5C#N)ccnc34)C(=O)NCCNC(=O)CC[C@H](C(=O)O)N3CCN(CC(=O)O)CCN(CC(=O)O)CCN(CC(=O)O)CC3)cccc12 [BiOncoFAP-DOTAGA]
IC50 (FAP): 0.17 nM

N#C[C@@H]1CC(F)(F)CN1C(=O)CNC(=O)c1ccnc2ccc(OCCCCNC(=O)CC[C@H](NC(=O)CN3CCN(CC(=O)O)CCN(CC(=O)O)CCN(CC(=O)O)CC3)C(=O)NCCCCOc3ccc4nccc(C(=O)NCC(=O)N5CC(F)(F)C[C@H]5C#N)c4c3)cc12 [DO3A.Glu.(FAPi)2, 2,2′,2″-(10-(2-(((S)-1,5-bis((4-((4-((2-((S)-2-Cyano-4,4-difluoropyrrolidin-1-yl)-2-oxoethyl)-carbamoyl)quinolin-6-yl)oxy)butyl)amino)-1,5-dioxopentan-2-yl)amino)-2-oxoethyl)-1,4,7,10-tetraazacyclododecane-1,4,7-triyl)triacetic acid]
IC50 values for FAP (in words) [1]: subnanomolar
IC50 [2]: 1000 ± 140 nM
SI(PREP/FAP) [2]: 1667
IC50 [3]: 540 ± 60 nM
SI(DPP4/FAP) [3]: 900
IC50 [4]: 1030 ± 180 nM
SI(DPP8/FAP) ([4]; selectivity index = IC50(DPP8)/IC50(FAP)): 1717
IC50 [5]: 950 ± 110 nM
SI(DPP9/FAP) [5]: 1583

N#C[C@@H]1CC(F)(F)CN1C(=O)CNC(=O)c1ccnc2ccc(OCCCCNC(=O)CC[C@H](NC(=O)CCC(C(=O)O)N3CCN(CC(=O)O)CCN(CC(=O)O)CCN(CC(=O)O)CC3)C(=O)NCCCCOc3ccc4nccc(C(=O)NCC(=O)N5CC(F)(F)C[C@H]5C#N)c4c3)cc12 (stereo partly drawn) [DOTAGA.Glu.(FAPi)2, 2,2′,2″-(10-(4-(((S)-1,5-bis((4-((4-((2-((S)-2-Cyano-4,4-difluoropyrrolidin-1-yl)-2-oxoethyl)-carbamoyl)quinolin-6-yl)oxy)butyl)amino)-1,5-dioxopentan-2-yl)amino)-1-carboxy-4-oxobutyl)-1,4,7,10-tetraazacyclododecane-1,4,7-triyl)triacetic acid]
IC50 ([1]; 50 µM Z-Gly-Pro-AMC, pH 8.0, 37 °C, triplicate): 0.26 ± 0.04 nM
IC50 values for FAP (in words) [1]: subnanomolar
IC50 [2]: 590 ± 100 nM
SI(PREP/FAP) [2]: 2269
IC50 [3]: 1190 ± 80 nM
SI(DPP4/FAP) [3]: 4577
IC50 [4]: 29 ± 4 nM
IC50 [5]: 83 ± 1.5 nM
SI(DPP9/FAP) [5]: 319

N#C[C@@H]1CC(F)(F)CN1C(=O)CNC(=O)c1ccnc2ccccc12 [UAMC-1110]
IC50 [6]: > 10000 nM
